The values below come from publication PMC11121358, “Redox Properties of Bacillus subtilis Ferredoxin:NADP^+ Oxidoreductase: Potentiometric Characteristics and Reactions with Pro-Oxidant Xenobiotics” (International Journal of Molecular Sciences, 2024).

Broadly, the Ki is a measure of affinity in units of concentration, obtained from inhibition or displacement. Low readings indicate a stronger hold on the target, high ones a looser hold on the target.

This assay deals with T1, Bacillus subtilis ferredoxin:NADP^+ oxidoreductase (BsFNR) (Bacillus subtilis, UniProt O05268).
T1 construct: gene yumC
Put plainly: steady-state product inhibition of NADPH:plumbagin reductase reaction. The class given is biochemical.

T1 sequence (O05268 whole entry): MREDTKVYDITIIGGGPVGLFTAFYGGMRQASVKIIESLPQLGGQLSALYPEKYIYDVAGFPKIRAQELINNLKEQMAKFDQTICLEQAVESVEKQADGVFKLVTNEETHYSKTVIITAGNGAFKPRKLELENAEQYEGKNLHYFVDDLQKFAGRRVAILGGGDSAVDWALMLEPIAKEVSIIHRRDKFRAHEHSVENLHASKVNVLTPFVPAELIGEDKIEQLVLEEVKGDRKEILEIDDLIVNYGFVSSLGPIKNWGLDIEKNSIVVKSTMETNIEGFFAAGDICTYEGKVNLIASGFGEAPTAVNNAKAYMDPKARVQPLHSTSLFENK

`NC(=O)c1ccc[n+]([C@@H]2O[C@H](COP(=O)(O)OP(=O)(O)OC[C@H]3O[C@@H](n4cnc5c(N)ncnc54)[C@H](OP(=O)(O)O)[C@@H]3O)[C@@H](O)[C@H]2O)c1` [NADP^+] had a Ki of 62.6 ± 10.5 µM.
